From US20170216225A1, “METHOD FOR ANTICOAGULATION” (priority 2016, published 2017)

Key:
Format in all cases: in vivo
[1] = system: intrinsic pathway of coagulation system; test: Activated partial thromboplastin time (aPTT) of plasma from IA-treated mice
Experimental: The 5- to 6-week old male C57BL/6JNar1 mice having body weights around 20 g were purchased from National Laboratory Animal Center, Taipei, Taiwan. Coagulation system in blood is composed of intrinsic and extrinsic pathways. The intrinsic pathway is assayed by activated thromboplastin time (aPTT) and the extrinsic pathway is assayed by prothrombin time (PT). Following intraperitoneal injection of various dose of IA, plasma was obtained at different periods of time and was assayed for aPTT and PT. aPTT and PT were assayed in a Stago ST4 coagulation analyzer (ST art 4, Diagnostica Stago, France). By carbon dioxide anesthesia of mice, blood was obtained by cardiac puncture using 3.2% sodium citrate mixing with blood at a ratio of 1:9. The blood was centrifuged at 2000g/rpm for 10 minutes to get the mouse plasma, which was assayed immediately. aPTT was assayed in 4-fold dilution of aPTT r reagent using kit-provided buffer solution as diluent. In aPTT assay, 0.1 mL of plasma was kept warm for 1 min at 37° C. in a barrette of 4 cuvettes in Stago ST4 coagulation analyzer, then 0.1 mL of 4 fold-diluted aPTT reagent and one steel ball were added and waited for 180 seconds. Finally, 0.1 mL of 25 mM CaCl2 solution was added for aPTT detection. To investigate the anticoagulation effect in the intrinsic pathway of coagulation system in the IA-treated mice, the aPTT was measured at different treatment times. Mouse (n=6) was intraperitoneally injected with 1 mL of 1000 ppm ([…]) IA, blood was drawn 1 hr, 2 hr, 3 hr, and 24 hr after IA injection. Ten mice were injected with vehicle (n=10) and were served as controls. Then, the aPTT of each group was measured. FIG. 2A is a diagram of Table 1-1. To investigate the anticoagulation effect in the intrinsic pathway of coagulation system the IA-treated mice, the aPTT was also measured under different doses of IA. Various doses of IA (1 ppm, 10 ppm, 100 ppm, 1,000 ppm) in 1 mL, were intraperitoneally injected into different groups of mice (n=6), respectively. Plasma was separated 3 hr later. Ten mice were injected with vehicle and were served as controls. The aPTT of each group was measured. FIG. 2B is a diagram of Table 1-2.

[2] = system: extrinsic pathway of coagulation system; test: Prothrombin time (PT) of plasma from IA-treated mice
Experimental: The 5- to 6-week old male C57BL/6JNar1 mice having body weights around 20 g were purchased from National Laboratory Animal Center, Taipei, Taiwan.
Coagulation system in blood is composed of intrinsic and extrinsic pathways. The intrinsic pathway is assayed by activated thromboplastin time (aPTT) and the extrinsic pathway is assayed by prothrombin time (PT). Following intraperitoneal injection of various dose of IA, plasma was obtained at different periods of time and was assayed for aPTT and PT. aPTT and PT were assayed in a Stago ST4 coagulation analyzer (ST art 4, Diagnostica Stago, France).
By carbon dioxide anesthesia of mice, blood was obtained by cardiac puncture using 3.2% sodium citrate mixing with blood at a ratio of 1:9. The blood was centrifuged at 2000g/rpm for 10 minutes to get the mouse plasma, which was assayed immediately.
PT was assayed in 4-fold dilution of PT reagent, composed of four parts including one part of PT reagent, one part of 25 mM CaCl solution, and two parts of sterile water. In PT assay, 0.1 mL of plasma was put into each of 4 barrette cuvette, each of which had one steel ball, and was kept at 37° C. for 1 min in Stago ST4 coagulation analyzer. Then, 0.2 mL of the diluted PT reagent was added for PT detection.
Moreover, to investigate the anticoagulation effect in the extrinsic pathway of coagulation system in the IA-treated mice, the PT was measured at different treatment times. Different groups of mice (n=6) were respectively intraperitoneally injected with 1 mL of 1000 ppm ([…]) IA, blood was drawn 1 hr, 2 hr, 3 hr, and 24 hr after IA injection. Ten mice were injected with vehicle (n=10) and were served as controls. Then, the PT of each group was measured. FIG. 3A is a diagram of Table 2-1.
To investigate the anticoagulation effect in the extrinsic pathway of coagulation system in the IA-treated mice, the PT was also measured under different doses of IA. Various doses of IA (1 ppm, 10 ppm, 100 ppm, 1,000 ppm) in 1 mL, were intraperitoneally injected into different groups of mice (n=6), respectively. Plasma was separated 3 hr later. Ten mice were injected with vehicle and were served as controls. The PT of each group was measured. FIG. 3B is a diagram of Table 2-2.

mice = test: Tolerability of intraperitoneal IA in mice
Description: (§1) In other words, IA is not harmful to the health of mammals even at high doses.

rats = test: Tolerability of IA in rats; details: 1 mL of 30,000 ppm IA
Description: as §1

[3] = 1 mL i.p., 3 hr after injection
[4] = 1 mL of 1000 ppm (0.05 mL/kg) IA i.p., treatment time 1 hr
[5] = 1 mL of 1000 ppm (0.05 mL/kg) IA i.p., treatment time 2 hr
[6] = 1 mL of 1000 ppm (0.05 mL/kg) IA i.p., treatment time 3 hr
[7] = 1 mL of 1000 ppm (0.05 mL/kg) IA i.p., treatment time 24 hr
[8] = injected dose 1 ppm in 1 mL i.p., 3 hr after injection
[9] = injected dose 10 ppm in 1 mL i.p., 3 hr after injection
[10] = injected dose 100 ppm in 1 mL i.p., 3 hr after injection
[11] = injected dose 1000 ppm in 1 mL i.p., 3 hr after injection

## CC(C)CCN [IA, 3-methyl-1-butanamine]
[1]; [3]
  Lowest dose with anticoagulation effect in the intrinsic pathway (aPTT prolonged, statistical meaning): 1 ppm
[1]; [4]
  Mean of aPTT: 30.8 s
[1]; [5]
  Mean of aPTT: 32.0 s
[1]; [6]
  Mean of aPTT: 33.7 s
[1]; [7]
  Mean of aPTT: 34.8 s
[1]; 1 mL of 1000 ppm IA i.p.
  Treatment time after which aPTT prolongation has statistical meaning: 1 h
[1]; [8]
  Mean of aPTT: 33.0 s
[1]; [9]
  Mean of aPTT: 33.0 s
[1]; [10]
  Mean of aPTT: 33.4 s
[1]; [11]
  Mean of aPTT: 33.7 s
[2]; [3]
  Dose at which PT was obviously prolonged (statistical meaning): 1000 ppm
[2]; [4]
  Mean of PT: 11.6 s
[2]; [5]
  Mean of PT: 12.2 s
[2]; [6]
  Mean of PT: 12.6 s
[2]; [7]
  Mean of PT: 13.2 s
[2]; 1 mL of 1000 ppm IA i.p.
  Treatment time after which PT prolongation has statistical meaning: 2 h
[2]; [8]
  Mean of PT: 11.2 s
[2]; [9]
  Mean of PT: 11.4 s
[2]; [10]
  Mean of PT: 11.5 s
[2]; [11]
  Mean of PT: 12.6 s
mice; BALB/C mice (20 g), 1 mL of 20,000 ppm (0.1 mL/kg) i.p.
  Tolerance of intraperitoneal injection: could tolerate
mice; mice, 1 mL of 1,000 ppm (0.05 mL/kg) IA
  Physiological state after IA: normal physiological state can be maintained
rats
  Physiological state after IA: normal physiological state can also be maintained
